Assay results: EP0152799A1, “Compounds having peripheral calcium antagonist, anticonvulsive and eumetabolic activity, processes for the preparation thereof and pharmaceutical compositions containing them” (PULITZER ITALIANA S.p.A., priority 1984, dated 1985)

How the values were obtained:
cerebral district = assay: Cerebral perfusion in the rabbit (cerebral vasodilative activity); assay type: in vivo; conditions: 0.9 uM i.a.; for Area mm^2 / Difference in pressure / Δ: perfusion of the cerebral district
Method: The cerebral vasodilative activity of PU 122 in comparison with Flunarizine was tested by the method of the cerebral perfusion in the rabbit according to the procedure of Von P. Vaupel e H. Hutten (1980), by measurement of the decrease of the peripheral resistances in the cerebral district.
Said changement was determined by means of a transducer, by measuring the hematic pressure at the cerebral level and scoring the lasting of action of the compound under test.
The two test compounds were administered by intraarterial route at the dosage of 0.9 uM, in a volume of 0.2 ml for each animal.

Rat hind quarters = Rat hind quarters perfused with hyperkaliemic tyrode (vasodilative activity); conditions: 5 x 10^-5 M; for Perfusion pressure after 10' / Perfusion pressure basal: hyperkaliemic tyrode; for Perfusion pressure Δ: basal minus after 10'
Source text: The vasodilative activity of PU 122 in comparison with Flunarizine was further evaluated according to the procedure described by F.N. Fastier and F.H. Smirk, (J. Pharm. Exp. Therap. 89, 256-270; […]), by measuring the antagonist action of the test compound against hyperkaliemia induced vasoconstric- tion.
The compounds under test were used at 5.10^-5 M concentration.

rat brain synaptosomes = assay: 45 Ca uptake in synaptosomial preparations (Ca antagonist activity); assay type: biochemical; conditions: concentration not given
[1] = system: human platelet rich plasma (PRP); assay: Platelet aggregation induced by ADP; assay type: cell-based; conditions: compared with acetylsalicylic acid
Method: The inhibitory effect on platelet aggregation induced BY ADP on human platelet rich plasma (PRP) was evaluated for PU 122 in comparison with acetylsalicy lie acid, according to the procedure described by G.V.R. Born (Nature, 194, 927; 1962).

| Compound | Lasting of the effect (cerebral district) | Area mm^2 (cerebral district) | Difference in pressure (cerebral district) | Δ (cerebral district) | Perfusion pressure after 10' (Rat hind quarters) | Perfusion pressure Δ (Rat hind quarters) | Perfusion pressure basal (Rat hind quarters) | Ca antagonist activity (effect on 45 Ca uptake) (rat brain synaptosomes) | IC50 platelet antiaggregating activity [1] |
| --- | --- | --- | --- | --- | --- | --- | --- | --- | --- |
| Fc1ccc(C(c2ccc(F)cc2)N2CCN(C/C=C/c3ccccc3)CC2)cc1 [Flunarizine, reference compound] | 12.50 min | 314.2 mm^2 | 10.25 | 25.12 | 95.00 | 80.00 | 175.00 |  |  |
| COc1ccc(C=CCN2CCN(C(c3ccc(F)cc3)c3ccc(F)cc3)CC2)cc1OC.Cl.Cl [PU 122, 1-(4,4'-Difluorobenzhydryl)-4-(3,4-dimethoxycinnamyl)piperazine dihydrochloride] | 16.70 min | 487.14 mm^2 | 18.75 | 29.17 | 90.00 | 105.00 | 195.00 | -16.4% | substan tially better than that of acetylsalicylic acid |
